Test results taken from patent US12590108B2, “Boracic acid compound” (Phaeno Therapeutics Co., Ltd, priority 2020, dated 2026).
Where two headings read alike, the source gives them in different places.

Experiment: Pharmacokinetics of the compound in rats (intravenous and oral)
Format: in vivo
Details: male, SD, plasma, rat; for Vd: read-out: Vdss
Protocol: The pharmacokinetic characteristics of the compound in rodents after intravenous injection and oral administration were tested by standard protocol. Specifically, the fasting SD male rats in the experiment were given the candidate compounds by intravenous injection and oral administration. Both oral preparation and intravenous preparation were prepared into 10 mg/mL or 30 mg/mL clear solutions with physiological saline and were administered by intravenous bolus or gavage for 5 minutes. Plasma samples were collected and analyzed by LC-MS/MS method, and pharmacokinetic parameters were calculated.

[1] = 100 mg/kg, intravenous bolus 100 mpk
[2] = 300 mg/kg, intravenous bolus 300 mpk

AUC(0-t) [1]: 549 µg·h/mL
C0 [1]: 580 µg/mL
clearance [1]: 3.02 mL/min/kg
half-life [1]: 3.9 h
Vd [1]: 0.583 L/kg
AUC(0-t) (100 mg/kg, oral 100 mpk): 278 µg·h/mL
Cmax (100 mg/kg, oral 100 mpk): 35.2 µg/mL
Tmax (100 mg/kg, oral 100 mpk): 2 h
half-life (100 mg/kg, oral 100 mpk): 4.99 h
bioavailability (100 mg/kg, oral 100 mpk, AUC0-inf (100 mpk PO)/AUC0-inf (100 mpk IV)): 52.2%
AUC(0-t) [2]: 1160 µg·h/mL
C0 [2]: 1390 µg/mL
clearance [2]: 4.29 mL/min/kg
half-life [2]: 4.56 h
Vd [2]: 0.96 L/kg
SMILES: CCOc1ccc2c(c1C(=O)O)O[B-](O)(O)CO2 [Compound 15]
